We go through 21 molecules from patent US4931450A, “Amino acid derivatives” (Novo Industri A/S, priority 1986, dated 1990).

Each structure is given as a SMILES string. Structures can show the parent of a compound that is named as a salt. Where two headings read alike, the source gives them in different places.

Assay [1] concerns GABA-uptake. Kind of assay: In vitro GABA-uptake inhibition, essentially as described by Fjalland, 3H-GABA as substrate. The class given is biochemical.
Method: GABA-uptake inhibition was measured essentially as described by Fjalland (Acta Pharmacol. et. Toxicol. (1978), 42, 73-76) using 25 mM of 3H-GABA as a substrate.
In assay [2] the test system is DBA/2 mice (convulsions induced by loud noise; Rotarod). In words: Rotarod test versus convulsions induced by loud noise in DBA/2 mice (ratio ED50 Rotarod/ED50 tonic convulsions). The class given is in vivo, male DBA/2 mice. To be noted: i.p., Rotarod test 25 min after injection, then 14 kHz tone at 111 dB for 30 sec. The protocol:
The convulsions induced by loud noise in the DBA/2 strain of mice is regarded as a reliable model for evaluating anti-epileptic drug effects, cf. E. N. Petersen et al.: Psychopharmacol. 83 (1984), 240, and A. G. Chapman et al.: Arzmeim.Forsch. 10 (1984), 1261. The Rotarod and Traction tests were used to evaluate the sedative properties of the test drugs.
Male DBA/2 mice (8±1 g) were used in all experiments. The animals were pretrained on the Rotarod (6 rpm; rod diameter 2.5 cm) for 1 min. The compounds tested were injected intra-peritoneally. Twenty-five min, later the animals underwent a 2 min. test on the Rotarod. The number of failures to stay on the rod was counted. An error rate higher than 10 was assigned the maximum score of 10. Immediately after the Rotarod test, the animals were tested in a Traction test, cf. Psychopharmacol. above. In this test, the animal was required to maintain grasp on a thin rod (diameter 2.5 mm) with the forepaws for five sec. and, within this period of time, to show a traction response (grasping onto the rod with one of the hindlegs). The performance on the test was based on the absence or presence of the traction response with the 5 sec. test period. Finally, after the Traction test, the animals were individually placed in a chamber in which they were exposed for 30 sec. to a 14 kHz sinus tone at 111 dB. During this period of time, the following behaviours were noted: "wild running", clonic convulsions and death.
The compounds tested were dissolved in distilled water or suspended in 5% chremophore. The injection volume was 0.2 ml/mouse.
In table 2, below, the ratio ED50 Rotarod/ED50 tonic convulsions is given for the compounds tested. NO-05-0340 is R-N-(4-(2-methylphenyl)-4-(3-methyl-2-thienyl)but-3-en-1-yl)nipecotic acid and NO-05-0356 is R-N-(4-(N-methylpyrrol-2-yl)-4-phenylbut-3-en-1-yl)nipecotic acid.
On the technique in general: The rotarod test checks motor coordination on a turning rod.

For assay [3], the system named is GABA uptake. Particulars: orally active; cited from earlier work.
Setting [4] is: 3H-GABA substrate, two separate experiments, 3-5 concentrations of test compound, read-out: IC50.
[5] abbreviates: R3 nipecotic acid, read-out: in vitro test value.

As to `Cc1ccsc1C(=CCCN1CCC[C@@H](C(=O)O)C1)c1cccc(Cl)c1` (mixture of isomers), the IC50 in assay [1] (setting [4]) came out at 124 nM.

Take `O=C(O)C1=CCCN(CCC=C(c2ccccc2)c2cccs2)C1` (mixture of isomers) [phenyl, thien-2-yl, guvacine, (E/Z), reference compound]: the IC50 in assay [1] (setting [4]) amounted to 217 nM.

As for `O=C(O)[C@@H]1CCCN(CCC=C(c2ccccc2)c2cccs2)C1` (mixture of isomers) [reference compound], the IC50 in assay [1] (setting [4]) turned out to be 236 nM.

For the molecule `O=C(O)C1CCCN(CCC=C(c2ccccc2)c2cccs2)C1` (racemic) [reference compound], the IC50 in assay [1] (setting [4]) and in assay [1] (setting [5]) was 470 nM each time.

`Cc1ccc(C(=CCCN2CCC[C@@H](C(=O)O)C2)c2sccc2C)c(C)c1` [Example 10, R-N-(4-(2,4-dimethylphenyl)-4-(3-methyl-2-thienyl)but-3-en-1-yl)nipecotic acid hydrochloride]: the IC50 in assay [1] (setting [4]) stood at 190 nM.

Regarding `CCCn1cccc1C(=CCCN1CCC[C@@H](C(=O)O)C1)c1ccccc1C` [Example 14], the IC50 in assay [1] (setting [4]) worked out at 85 nM.

Consider `Cc1ccccc1C(=CCCN1CCC=C(C(=O)O)C1)c1sccc1C` [Example 15], for which the IC50 in assay [1] (setting [4]) was 117 nM.

In the case of `Cc1cc(Cl)ccc1C(=CCCN1CCC[C@@H](C(=O)O)C1)c1sccc1C` [Example 16], the IC50 in assay [1] (setting [4]) is 89 nM.

Regarding `COc1cccc(C(=CCCN2CCC[C@@H](C(=O)O)C2)c2sccc2C)c1` [Example 18], in assay [1] (setting [4]), the IC50 is 56 nM.

For the molecule `Cc1ccsc1C(=CCCN1CCC[C@@H](C(=O)O)C1)c1ccccc1F` [Example 24], in assay [1] (setting [4]), the IC50 is 217 nM.

Regarding `Cc1ccsc1C(=CCCN1CCC[C@@H](C(=O)O)C1)c1cccc(Cl)c1C` [Example 49], in assay [1] (setting [4]), the IC50 was found to be 104 nM.

Consider `Cc1cc(Cl)ccc1C(=CCCN1CCC[C@@H](C(=O)O)C1)c1cccn1C` [Example 57], for which, in assay [1] (setting [4]), the IC50 turned out to be 148 nM.

As for `CCn1cccc1C(=CCCN1CCC[C@@H](C(=O)O)C1)c1ccccc1C` [Example 58], in assay [1] (setting [4]), the IC50 was 49 nM.

Regarding `CCn1cccc1C(=CCCN1CCC=C(C(=O)O)C1)c1ccccc1` [Example 59], the IC50 in assay [1] (setting [4]) is 162 nM.

For the molecule `Cc1ccccc1C(=CCCN1CCC[C@@H](C(=O)O)C1)c1sccc1C` [NO-05-0340, R-N-(4-(2-Methylphenyl)-4-(3-methyl-2-thienyl)but-3-en-1-yl)nipecotic acid], the IC50 in assay [1] (setting [4]) and in assay [1] (setting [5]) was 74 nM throughout. The “ratio ED50 Rotarod/ED50 tonic convulsions” value in assay [2] is listed as 8.

Take `Cl.Cn1cccc1C(=CCCN1CCC[C@@H](C(=O)O)C1)c1ccccc1` [NO-05-0356, R-N-(4-(N-Methylpyrrol-2-yl)-4-phenylbut-3-en-1-yl)nipecotic acid hydrochloride]: in assay [1] (setting [4]), the IC50 is 68 nM. Moreover, the “ratio ED50 Rotarod/ED50 tonic convulsions” value in assay [2] was found to be 21.

Regarding `Cn1cccc1C(=CCCN1CCC=C(C(=O)O)C1)c1ccccc1` [NO-05-0387, N-(4-(N-Methylpyrrol-2-yl)-4-phenylbut-3-en-1-yl)guvacine hydrochloride], in assay [1] (setting [4]), the IC50 turned out to be 126 nM.

For `O=C(O)C1CCCN(CCC=C(c2ccccc2)c2ccccc2)C1` (stereo not drawn) [SK&F 89976A, N-(4,4-diphenyl-3-butenyl)nipicotic acid, reference compound], in assay [3], the “GABA uptake inhibition, oral activity” value is “orally active inhibitors of GABA uptake”. In assay [2], the “ratio ED50 Rotarod/ED50 tonic convulsions” value is on record as 5.

For `O=C(O)C1=CCCN(CCC=C(c2ccccc2)c2ccccc2)C1` [SK&F 100330A, N-(4,4-diphenyl-3-butenyl)guvacine], in assay [3], the “GABA uptake inhibition, oral activity” value was “orally active inhibitors of GABA uptake”.

In the case of `O=C(O)CC1CCN(CCC=C(c2ccccc2)c2ccccc2)C1` (stereo not drawn) [SK&F 100561, N-(4,4-diphenyl-3-butenyl)-β-homoproline, reference compound], the “GABA uptake inhibition, oral activity” value in assay [3] was “orally active inhibitors of GABA uptake”. Also, the “ratio ED50 Rotarod/ED50 tonic convulsions” value in assay [2] worked out at 7.

On to `O=C(O)C1CCCN(CCC=C(c2ccccc2)c2cccs2)C1` (stereo not drawn) [SK&F 100604J, N-(4-sphenyl-4-(2-thienyl)-3-butenyl)nipecotic acid], for which, in assay [3], the “GABA uptake inhibition, oral activity” value was “orally active inhibitors of GABA uptake”.
